PubChem BioAssay (NCI)
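Protocol summary: plate cells (96-well), add compound at 5 concentrations, incubate 48 h, interpolate endpoints linearly. Abbreviation: GI50, concentration required for 50% inhibition of growth. TGI denotes the concentration required for complete inhibition of growth.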

Assays:
Assay in all cases: inhibition of tumour cell growth, NCI panel, 48 h
[1] = test system: LOX IMVI melanoma
[2] = test system: NCI/ADR-RES ovarian
[3] = test system: UO-31 renal
[4] = test system: SK-MEL-5 melanoma
[5] = test system: UACC-62 melanoma
[6] = test system: HL-60(TB) leukemia
[7] = test system: U251 CNS
[8] = test system: NCI-H460 lung
[9] = test system: MCF7 breast
[10] = test system: SK-OV-3 ovarian

Structure (SMILES) | GI50 [1] | TGI [1] | GI50 [2] | TGI [2] | GI50 [3] | TGI [3] | GI50 [4] | TGI [4] | GI50 [5] | TGI [5] | GI50 [6] | TGI [6] | GI50 [7] | TGI [7] | GI50 [8] | TGI [8] | GI50 [9] | TGI [9] | GI50 [10] | TGI [10]
COc1cc([C@@H]2c3cc4c(cc3C(OC3O[C@@H]5COC(C)O[C@H]5[C@H](O)[C@H]3O)C3COC(=O)[C@@H]32)OCO4)cc(OC)c1O (stereo not given in full) | 0.444 µM | 13.7 µM | 15.4 µM | > 50 µM | 3 µM | 31.6 µM | 0.861 µM | 7.96 µM | 0.868 µM | > 44.9 µM | 0.182 µM | 1.53 µM | 0.667 µM | 14.9 µM | 0.116 µM | 6.88 µM | 0.254 µM | > 50 µM | 1.58 µM | 14.2 µM
CCOc1cc(C(C)(C)C)ccc1C1=N[C@@](C)(c2ccc(Cl)cc2)[C@@](C)(c2ccc(Cl)cc2)N1C(=O)N1CCN(CCS(C)(=O)=O)CC1 | 1.17 µM | 3.6 µM | 4.09 µM | 24.4 µM | 0.361 µM | 1.63 µM | 1.38 µM | 2.73 µM | 0.793 µM | 3 µM | 2.21 µM | 5.22 µM | 2.89 µM | 8.52 µM | 1.1 µM | 5.4 µM | 0.606 µM | 3.75 µM | 4.32 µM | 16.1 µM
O=S(=O)(O)ONC1=NCCN1 | 76.6 µM | > 100 µM | > 100 µM | > 100 µM | 29.1 µM | > 100 µM | > 100 µM | > 100 µM | > 100 µM | > 100 µM | > 100 µM | > 100 µM | > 100 µM | > 100 µM | > 100 µM | > 100 µM | 16.1 µM | > 100 µM | > 100 µM | > 100 µM
CCCCCCNC(=O)Oc1ccc(/C(=C(\C)c2ccccc2)c2ccc(OCCN(CC)CC)cc2)cc1 | 1.1 µM | 2.96 µM | 5.47 µM | 11.9 µM | 1.51 µM | 6.09 µM | 3.01 µM | 9.26 µM | 2.05 µM | 7.4 µM | 0.524 µM | 5.2 µM | 2.41 µM | 8.15 µM | 1.4 µM | 3.62 µM | 0.602 µM | 5.47 µM | 8.33 µM | 15.2 µM
Cc1nnc(-c2ccc(-c3nc4ccccc4o3)cc2)o1 | > 100 µM | > 100 µM | > 100 µM | > 100 µM | > 100 µM | > 100 µM | 21 µM | 65.3 µM | 36.8 µM | > 100 µM | 56.8 µM | > 100 µM | 16.4 µM | 34.8 µM | 25.9 µM | > 100 µM | 26.7 µM | > 100 µM | 29.7 µM | 77.7 µM
Oc1c(CN2CCOCC2)cc(COCc2ccccc2)c2cccnc12 | 1.19 µM | 10.4 µM | 0.287 µM | 1.88 µM | 0.351 µM | 9.36 µM | 2.03 µM | 5.43 µM | 2.24 µM | 8.91 µM | 2.38 µM | 7.32 µM | 2.77 µM | > 100 µM | 0.756 µM | 53.3 µM | 2.07 µM | > 100 µM | 3 µM | 22.2 µM
